# Source: ChEMBL document CHEMBL3286307, “Imidazo[2,1]thiazol-3-one Derivatives Useful as Diagnostic Agents for Alzheimer's Disease” (ACS Med Chem Lett, 2014)
# What was measured:
# [1] = target: Amyloid-beta precursor protein (Homo sapiens, UniProt P05067); assay: Inhibition of amyloid beta (unknown origin) aggregation by Thiazin-red R displacement fluorescence assay
# [2] = target: Microtubule-associated protein tau (Homo sapiens, UniProt P10636); assay: Inhibition of recombinant human microtubule associated protein tau aggregation by Thiazin-red R displacement fluorescence assay
# Sequence of Microtubule-associated protein tau (P10636 whole entry): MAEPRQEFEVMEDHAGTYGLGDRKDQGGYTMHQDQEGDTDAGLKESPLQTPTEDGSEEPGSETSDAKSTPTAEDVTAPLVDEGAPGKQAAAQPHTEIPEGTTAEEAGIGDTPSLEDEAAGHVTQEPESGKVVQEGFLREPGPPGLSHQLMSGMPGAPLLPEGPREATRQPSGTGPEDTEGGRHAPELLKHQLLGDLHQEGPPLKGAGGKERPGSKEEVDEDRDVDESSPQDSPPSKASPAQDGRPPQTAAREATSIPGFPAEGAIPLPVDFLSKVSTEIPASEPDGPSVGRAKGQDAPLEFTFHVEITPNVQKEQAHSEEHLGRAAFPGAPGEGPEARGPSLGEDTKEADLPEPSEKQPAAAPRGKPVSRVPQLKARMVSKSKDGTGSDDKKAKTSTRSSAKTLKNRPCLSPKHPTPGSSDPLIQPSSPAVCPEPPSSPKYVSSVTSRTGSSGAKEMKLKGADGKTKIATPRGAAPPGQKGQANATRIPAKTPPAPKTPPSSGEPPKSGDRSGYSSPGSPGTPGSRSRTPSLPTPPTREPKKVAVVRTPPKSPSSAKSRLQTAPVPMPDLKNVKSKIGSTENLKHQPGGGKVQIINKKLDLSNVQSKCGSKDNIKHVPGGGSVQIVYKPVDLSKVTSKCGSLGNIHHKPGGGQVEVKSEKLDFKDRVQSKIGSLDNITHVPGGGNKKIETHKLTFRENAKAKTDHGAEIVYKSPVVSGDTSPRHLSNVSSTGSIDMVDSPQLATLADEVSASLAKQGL
# Sequence of Amyloid-beta precursor protein (P05067 whole entry): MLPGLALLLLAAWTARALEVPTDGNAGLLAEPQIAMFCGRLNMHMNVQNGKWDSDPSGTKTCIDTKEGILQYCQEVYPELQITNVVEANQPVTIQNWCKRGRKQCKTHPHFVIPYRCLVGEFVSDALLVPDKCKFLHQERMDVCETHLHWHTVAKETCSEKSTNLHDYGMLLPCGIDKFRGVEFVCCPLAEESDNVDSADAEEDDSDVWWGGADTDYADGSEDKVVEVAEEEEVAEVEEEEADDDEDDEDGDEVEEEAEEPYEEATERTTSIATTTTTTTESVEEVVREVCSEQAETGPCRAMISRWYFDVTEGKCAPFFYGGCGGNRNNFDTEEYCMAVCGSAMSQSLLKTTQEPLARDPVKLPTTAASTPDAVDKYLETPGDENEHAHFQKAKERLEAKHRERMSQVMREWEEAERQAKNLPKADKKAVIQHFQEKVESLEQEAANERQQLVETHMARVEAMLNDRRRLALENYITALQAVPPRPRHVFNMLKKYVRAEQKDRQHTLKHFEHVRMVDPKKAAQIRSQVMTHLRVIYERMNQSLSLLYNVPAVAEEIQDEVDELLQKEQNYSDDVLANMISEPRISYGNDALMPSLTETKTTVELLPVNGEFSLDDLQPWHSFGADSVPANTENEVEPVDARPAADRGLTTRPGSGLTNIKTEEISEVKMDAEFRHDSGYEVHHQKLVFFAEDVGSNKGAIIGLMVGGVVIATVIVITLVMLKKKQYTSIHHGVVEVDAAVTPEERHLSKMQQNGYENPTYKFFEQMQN
SMILES,IC50 [1] [nM],IC50 [2] [nM]
COc1cc(/C=c2\sc3nc(-c4ccncc4C)cn3c2=O)cc(OC)c1O,32,8
COc1cc(/C=c2\sc3nc(-c4ccncc4C)cn3c2=O)ccc1O,> 10000,79
COc1cc(/C=c2\sc3nc(-c4cccc(OC(F)(F)F)c4)cn3c2=O)cc(F)c1O,> 10000,–
